Measurements from US10344049B2, “Substituted steroids for the treatment of cancer” (AQUAVAN TECHNOLOGY CO., LTD., priority 2017, dated 2019).
Like-named read-outs stand apart in the source and are kept apart here.

Tests used:
Assay type in all cases: cell-based
[1] = system: African green monkey kidney cells Vero; assay: Cell viability test (Resazurin), Vero cells
Experimental: (§1) Cell viability was determined with Resazurin (at a final concentration of 25 μg/mL).

[2] = system: human breast cancer cells MDA-MB-231; assay: Cell viability test (Resazurin), MDA-MB-231 cells; set-up: evaluation of ability to inhibit cell growth activity (IC50): scale not given here
Experimental: as §1

[3] = system: human Glioblastoma cells U87-MG; assay: Cell viability test (Resazurin), U87-MG cells; set-up: evaluation of ability to inhibit cell growth activity (IC50): scale not given here
Experimental: as §1

[4] = system: human breast cancer cells MDA-MB-468; assay: Cell viability test (Resazurin), MDA-MB-468 cells
Experimental: as §1

[5] = system: human liver cancer cells Mahlavu; assay: Cell viability test (Resazurin), Mahlavu cells
Experimental: as §1

[6] = system: human lung cancer cells A549; assay: Cell viability test (Resazurin), A549 cells; set-up: evaluation of ability to inhibit cell growth activity (IC50): scale not given here
Experimental: as §1

[7] = system: human colorectal cancer cells SW-480; assay: Cell viability test (Resazurin), SW480 cells
Experimental: as §1

[8] = system: human leukemia cells U937; assay: Cell viability test (Resazurin), U937 cells
Experimental: as §1

[9] = 48 hours, 0.1% FCS, Resazurin, read-out: inhibitory concentrations of cell growth activity IC50
[10] = grade of the IC50 of Table 2, read-out: evaluation of ability to inhibit cell growth activity (IC50)
[11] = MDA-MB-231 cells, 48 hours, 0.1% FCS, Resazurin, read-out: inhibitory concentrations of cell growth activity IC50
[12] = MDA-MB-231 cells, grade of the IC50 of Table 2, read-out: evaluation of ability to inhibit cell growth activity (IC50)
[13] = MDA-MB-468 cells, 48 hours, 0.1% FCS, Resazurin, read-out: inhibitory concentrations of cell growth activity IC50
[14] = MDA-MB-468 cells, grade of the IC50 of Table 2, read-out: evaluation of ability to inhibit cell growth activity (IC50)
[15] = A549 cells, 48 hours, 0.1% FCS, Resazurin, read-out: inhibitory concentrations of cell growth activity IC50
[16] = A549 cells, grade of the IC50 of Table 2, read-out: evaluation of ability to inhibit cell growth activity (IC50)
[17] = SW480 cells, 48 hours, 0.1% FCS, Resazurin, read-out: inhibitory concentrations of cell growth activity IC50
[18] = SW480 cells, grade of the IC50 of Table 2, read-out: evaluation of ability to inhibit cell growth activity (IC50)
[19] = U937 cells, 48 hours, 0.1% FCS, Resazurin, read-out: inhibitory concentrations of cell growth activity IC50
[20] = U937 cells, grade of the IC50 of Table 2, read-out: evaluation of ability to inhibit cell growth activity (IC50)
[21] = Chlorocebus sabaeus, Vero, 48 h, 0.1% FCS, Resazurin, read-out: inhibitory concentrations of cell growth activity IC50
[22] = Chlorocebus sabaeus, Vero, grade of the IC50 of Table 2, read-out: evaluation of ability to inhibit cell growth activity (IC50)
[23] = Homo sapiens, MDA-MB-231, 48 h, MDA-MB-231 cells, 48 hours, 0.1% FCS, Resazurin, read-out: inhibitory concentrations of cell growth activity IC50
[24] = Homo sapiens, MDA-MB-231, MDA-MB-231 cells, grade of the IC50 of Table 2, read-out: evaluation of ability to inhibit cell growth activity (IC50)
[25] = Homo sapiens, U-87 MG, 48 h, 0.1% FCS, Resazurin, read-out: inhibitory concentrations of cell growth activity IC50
[26] = Homo sapiens, U-87 MG, grade of the IC50 of Table 2, read-out: evaluation of ability to inhibit cell growth activity (IC50)
[27] = Homo sapiens, MDA-MB-468, 48 h, MDA-MB-468 cells, 48 hours, 0.1% FCS, Resazurin, read-out: inhibitory concentrations of cell growth activity IC50
[28] = Homo sapiens, MDA-MB-468, MDA-MB-468 cells, grade of the IC50 of Table 2, read-out: evaluation of ability to inhibit cell growth activity (IC50)
[29] = Homo sapiens, Mahlavu, 48 h, 0.1% FCS, Resazurin, read-out: inhibitory concentrations of cell growth activity IC50
[30] = Homo sapiens, Mahlavu, grade of the IC50 of Table 2, read-out: evaluation of ability to inhibit cell growth activity (IC50)
[31] = A549 cells, grade of the IC50 of Table 2
[32] = Homo sapiens, A549, 48 h, A549 cells, 48 hours, 0.1% FCS, Resazurin, read-out: inhibitory concentrations of cell growth activity IC50
[33] = Homo sapiens, A549, A549 cells, grade of the IC50 of Table 2, read-out: evaluation of ability to inhibit cell growth activity (IC50)
[34] = Homo sapiens, SW480, 48 h, SW480 cells, 48 hours, 0.1% FCS, Resazurin, read-out: inhibitory concentrations of cell growth activity IC50
[35] = Homo sapiens, SW480, SW480 cells, grade of the IC50 of Table 2, read-out: evaluation of ability to inhibit cell growth activity (IC50)
[36] = Homo sapiens, U-937, 48 h, U937 cells, 48 hours, 0.1% FCS, Resazurin, read-out: inhibitory concentrations of cell growth activity IC50
[37] = Homo sapiens, U-937, U937 cells, grade of the IC50 of Table 2, read-out: evaluation of ability to inhibit cell growth activity (IC50)

| Compound | IC50 [1, 9] [µM] | IC50 [1, 10] [µM] | IC50 [2, 11] [µM] | IC50 [2, 12] [µM] | IC50 [3, 9] [µM] | IC50 [1, 21] [µM] | IC50 [2, 23] [µM] | IC50 [2, 24] [µM] | IC50 [3, 25] [µM] | IC50 [3, 26] [µM] | IC50 [4, 27] [µM] | IC50 [4, 28] [µM] | IC50 [5, 29] [µM] | IC50 [5, 30] [µM] | IC50 [6, 32] [µM] | IC50 [6, 33] [µM] | IC50 [7, 34] [µM] | IC50 [7, 35] [µM] | IC50 [8, 36] [µM] | IC50 [8, 37] [µM] | also measured |
| --- | --- | --- | --- | --- | --- | --- | --- | --- | --- | --- | --- | --- | --- | --- | --- | --- | --- | --- | --- | --- | --- |
| CO[C@H]1O[C@]23C=C[C@@H]4[C@@]1(CC[C@]1(C)[C@@H]([C@H](C)C[C@H](C=C(C)C)OC)CC[C@@]41C)[C@@H]2CC[C@H](O)C3(C)C [Compound 18] | > 256 | > 256 | > 256 | > 256 | > 256 |  |  |  |  |  |  |  |  |  |  |  |  |  |  |  | IC50 [3, 10]: > 256 µM; IC50 [4, 13]: > 256 µM; IC50 [4, 14]: > 256 µM; IC50 [5, 9]: > 256 µM; IC50 [5, 10]: > 256 µM; IC50 [6, 15]: > 256 µM; IC50 [6, 16]: > 256 µM; IC50 [7, 17]: > 256 µM; IC50 [7, 18]: > 256 µM; IC50 [8, 19]: > 256 µM; IC50 [8, 20]: > 256 µM |
| CC(=O)O[C@H]1C=C2[C@@H](CC[C@H](OC(C)=O)C2(C)C)[C@]2(C=O)CC[C@]3(C)[C@@H]([C@H](C)C[C@@H](O)C=C(C)C)CC[C@@]3(C)[C@H]12 [Compound 5] |  |  |  |  |  | 25.3 | 8.07 | 8 to 16 | 8.8 | 8 to 16 | 16.8 | 16 to 64 | 18.5 | 16 to 64 | 12 | 8 to 16 | 16.4 | 16 to 64 | 3.67 | < 8 | IC50 [1, 22]: 16 to 64 µM; evaluation of ability to inhibit cell growth activity (IC50) ([2]; MDA-MB-231 cells, grade of the IC50 of Table 2): ◯; evaluation of ability to inhibit cell growth activity (IC50) ([3]; grade of the IC50 of Table 2): ◯; evaluation of ability to inhibit cell growth activity (IC50) [6, 31]: ◯ |
| CC(C)=CC(=O)C[C@@H](C)[C@H]1CC[C@@]2(C)[C@@H]3[C@@H](O)C=C4[C@@H](CC[C@H](O)C4(C)C)[C@]3(C=O)CC[C@]12C [Compound 11] |  |  |  |  |  | > 256 | > 256 | > 256 | > 256 | > 256 | > 256 | > 256 | > 256 | > 256 | > 256 | > 256 | > 256 | > 256 | 84.2 | 64 to 256 | IC50 [1, 22]: > 256 µM |
| CO[C@H]1C=C2[C@@H](CC[C@H](O)C2(C)C)[C@]2(C=O)CC[C@]3(C)[C@@H]([C@H](C)C/C=C/C(C)(C)OC)CC[C@@]3(C)[C@H]12 [Compound 23] |  |  |  |  |  | 15.9 | 7.91 | < 8 | 7.65 | < 8 | 7.55 | < 8 | 15.4 | 8 to 16 | 15.3 | 8 to 16 | 7.56 | < 8 | 5.75 | < 8 | evaluation of ability to inhibit cell growth activity (IC50) ([1]; grade of the IC50 of Table 2): ◯; evaluation of ability to inhibit cell growth activity (IC50) ([5]; grade of the IC50 of Table 2): ◯; evaluation of ability to inhibit cell growth activity (IC50) [6, 31]: ◯ |
| CO[C@@H]1O[C@]23C=C[C@@H]4[C@@]1(CC[C@]1(C)[C@@H]([C@H](C)C[C@@H](O)C=C(C)C)CC[C@@]41C)[C@@H]2CC[C@H](O)C3(C)C [Compound 22] | > 256 | > 256 | > 256 | > 256 | > 256 |  |  |  |  |  |  |  |  |  |  |  |  |  |  |  | IC50 [3, 10]: > 256 µM; IC50 [4, 13]: > 256 µM; IC50 [4, 14]: > 256 µM; IC50 [5, 9]: > 256 µM; IC50 [5, 10]: > 256 µM; IC50 [6, 15]: > 256 µM; IC50 [6, 16]: > 256 µM; IC50 [7, 17]: > 256 µM; IC50 [7, 18]: > 256 µM; IC50 [8, 19]: 6.17 µM; IC50 [8, 20]: < 8 µM |
